Converted amounts (≈) assume the structure as drawn.
How the values were obtained:
M. Smegmatis ATCC607 = assay: In-vitro anti-bacterial activity against strain M. smegmatis ATCC607; format: cell-based; settings: 90% inhibitory concentration for bacterial growth, 48 hours, Alamar Blue fluorescence
Experimental: Flat-bottom, sterile 96-well plastic microtiter plates were filled with 180 μl of sterile deionized water, supplemented with 0.25% BSA. Subsequently, stock solutions (7.8× final test concentration) of compounds were added in 45 μl volumes to a series of duplicate wells in column 2 so as to allow evaluation of their effects on bacterial growth. Serial five-fold dilutions (45 μl in 180 μl) were made directly in the microtiter plates from column 2 to 11 using a customised robot system (Zymark Corp., Hopkinton, Mass.). Pipette tips were changed after every 3 dilutions to minimize pipetting errors with high hydrophobic compounds. Untreated control samples with (column 1) and without (column 12) inoculum were included in each microtiter plate. Approximately 250 CFU per well of bacteria inoculum, in a volume of 100 μl in 2.8× Mueller-Hinton broth medium, was added to the rows A to H, except column 12. The same volume of broth medium without inoculum was added to column 12 in row A to H. The cultures were incubated at 37° C. for 48 hours in a humidified 5% CO2 atmosphere (incubator with open air valve and continuous ventilation). At the end of incubation, two days after inoculation, the bacterial growth was quantitated fluorometrically. Therefore Alamar Blue (10×) was added to all wells in a volume of 20 μl and plates were incubated for another 2 hours at […]
The fluorescence was read in a computer-controlled fluorometer (Cytofluor, Biosearch) at an excitation wavelength of 530 nm and an emission wavelength of 590 nm (gain 30).

[1] = tested on: Staphylococcus aureus (ATCC29213); assay: Microtitre plate assay, IC90 determination, STA 29213; format: cell-based; settings: Staphylococcus aureus ATCC29213, 90% inhibitory concentration for bacterial growth, resazurin
Experimental: (§1) The bacteria used in this study were grown overnight in flasks containing 100 ml Mueller-Hinton Broth (Becton Dickinson—cat. no. 275730) in sterile de-ionized water, with shaking, at 37° C. Stocks (0.5 ml/tube) were stored at −70° C. until use. Bacteria titrations were performed in microtiter plates to detect the TCID50, in which the TCID50 represents the dilution that gives rise to bacterial growth in 50% of inoculated cultures.
(§2) In general, an inoculum level of approximately 100 TCID50 was used for susceptibility testing.
(§3) Flat-bottom, sterile 96-well plastic microtiter plates were filled with 180 μl of sterile deionized water, supplemented with 0.25% BSA. Subsequently, stock solutions (7.8× final test concentration) of compounds were added in 45 μl volumes in column 2 Serial five-fold dilutions (45 μl in […]) were made directly in the microtiter plates from column 2 to reach column 11. Untreated control samples with (column 1) and without (column 12) inoculum were included in each microtiter plate. Depending on the bacteria type, approximately 10 to 60 CFU per well of bacteria inoculum (100 TCID50), in a volume of 100 μl in 2.8× Mueller-Hinton broth medium, was added to the rows A to H, except column 12. The same volume of broth medium without inoculum was added to column 12 in row A to H. The cultures were incubated at 37° C. for 24 hours under a normal atmosphere (incubator with open air valve and continuous ventilation). At the end of incubation, one day after inoculation, the bacterial growth was quantitated fluorometrically. Therefore resazurin (0.6 mg/ml) was added in a volume of 20 μl to all wells 3 hours after inoculation, and the plates were re-incubated overnight. A change in colour from blue to pink indicated the growth of bacteria. The fluorescence was read in a computer-controlled fluorometer (Cytofluor Biosearch) at an excitation wavelength of 530 nm and an emission wavelength of 590 nm. The % growth inhibition achieved by the compounds was calculated according to standard methods.

[2] = tested on: Streptococcus pneumoniae (ATCC6305); assay: Microtitre plate assay, IC90 determination, SPN 6305; format: cell-based; settings: Streptococcus pneumoniae ATCC6305, 90% inhibitory concentration for bacterial growth, resazurin
Experimental: as §1, §2, §3

[3] = tested on: Enterococcus faecalis (ATCC29212); assay: Microtitre plate assay, IC90 determination, EFA 29212; format: cell-based; settings: Enterococcus faecalis ATCC29212; 90% inhibitory concentration for bacterial growth; resazurin
Experimental: as §1, §2, §3

[4] = tested on: Streptococcus pyogens (ATCC8668); assay: Microtitre plate assay, IC90 determination, SPY 8668; format: cell-based; settings: Streptococcus pyogens ATCC8668; 90% inhibitory concentration for bacterial growth; resazurin
Experimental: as §1, §2, §3

[5] = tested on: Pseudomonas aeruginosa (ATCC27853); assay: Microtitre plate assay, IC90 determination, PAE 27853; format: cell-based; settings: Pseudomonas aeruginosa ATCC27853; 90% inhibitory concentration for bacterial growth; resazurin
Experimental: as §1, §2, §3

[6] = tested on: methicilline resistant Staphylococcus aureus (MRSA) (a clinical isolate from the University of Antwerp); assay: Microtitre plate assay, IC90 determination, STA RMETH; format: cell-based; settings: 90% inhibitory concentration for bacterial growth, resazurin
Experimental: as §1, §2, §3

[7] = tested on: Staphylococcus aureus (ATCC25923); assay: Microtitre plate assay, IC90 determination, STA 25923; format: cell-based; settings: Staphylococcus aureus ATCC25923; 90% inhibitory concentration for bacterial growth; resazurin
Experimental: as §1, §2, §3

Compound | IC90 (M. Smegmatis ATCC607; Mycolicibacterium smegmatis, ATCC607, read-out: M. smegmatis IC90) [µg/mL] | IC90 ([1]; read-out: IC90 (μg/ml) STA 29213) [µg/mL] | IC90 ([2]; read-out: IC90 (μg/ml) SPN 6305) [µg/mL] | melting point [°C] | M. smegmatis IC90 (M. Smegmatis ATCC607) [µg/mL] | IC90 (μg/ml) STA 29213 [1] [µg/mL] | IC90 (μg/ml) SPN 6305 [2] [µg/mL] | IC90 (μg/ml) EFA 29212 [3] [µg/mL] | IC90 (μg/ml) SPY 8668 [4] [µg/mL] | IC90 (μg/ml) PAE 27853 [5] [µg/mL] | IC90 (μg/ml) STA RMETH [6] [µg/mL] | IC90 (μg/ml) STA 25923 [7] [µg/mL]
COc1nc2ccc(Br)cc2cc1C(/C(=C/CN(C)C)CCc1ccccc1)c1ccccc1 (stereo not drawn) [Compound 8] | 1.63 (≈ 3.16 µM) | 8.17 (≈ 15.8 µM) | 2.05 (≈ 3.98 µM) | 128 |  |  |  |  |  |  |  | 
COc1nc2ccc(Br)cc2cc1C(=C(CCN(C)C)c1ccccc1)c1ccccc1 [Compound 36] |  |  |  |  | 1.94 | 9.73 (≈ 20 µM) | 5.47 (≈ 11.2 µM) | 12.24 (≈ 25.1 µM) | 9.73 (≈ 20 µM) | 12.24 (≈ 25.1 µM) | 12.24 (≈ 25.1 µM) | 10.91 (≈ 22.4 µM)

— patent US20100069366A1, “ANTIBACTERIAL QUINOLINE DERIVATIVES” (JANSSEN-CILAG, priority 2006, published 2010)
